Blank lines part the entries; values can stand above or below the compound they belong to. The source made the active and inactive calls. No cut-off for these calls is given here.
Assays:
[1] = Drug excretion in iv dosed rat bile; format: ADME, organism-based; conditions: read-out: Drug uptake
[2] = Cmax in dog at 2.04 mg/kg, sublingual; format: ADME, organism-based, Canis lupus familiaris; design: dose 2.04 mg/kg, route sublingual; conditions: in vivo
[3] = Association constant, pKa of the compound; format: physicochemical
[4] = Tmax in dog at 2.04 mg/kg, sublingual; format: ADME, organism-based, Canis lupus familiaris; design: dose 2.04 mg/kg; conditions: in vivo
[5] = Half life in dog at 0.5 mg/kg, po; format: ADME, organism-based, Canis lupus familiaris; design: dose 0.5 mg/kg, route oral; conditions: in vivo
[6] = system: Homo sapiens; assay: Reversal of erectile dysfunction in human assessed as non-visual sexual stimulation at 200 mg, po dosed twice with the interval of 7 days after 2 hrs post dose; format: functional, organism-based
[7] = Volume of distribution at steady state in rat at 1 mg/kg, iv; format: ADME, organism-based; design: dose 1 mg/kg, route intravenous; conditions: in vivo, read-out: Vdss
[8] = target: T1, Melanocyte-stimulating hormone receptor (Homo sapiens, UniProt Q01726); assay: Agonist activity at human recombinant MC1 receptor expressed in HEK293 cells assessed as cAMP accumulation by enzyme fragment complementation assay; format: functional, cell-based
Target sequence in this assay (Q01726 whole entry, the tested form may be a part): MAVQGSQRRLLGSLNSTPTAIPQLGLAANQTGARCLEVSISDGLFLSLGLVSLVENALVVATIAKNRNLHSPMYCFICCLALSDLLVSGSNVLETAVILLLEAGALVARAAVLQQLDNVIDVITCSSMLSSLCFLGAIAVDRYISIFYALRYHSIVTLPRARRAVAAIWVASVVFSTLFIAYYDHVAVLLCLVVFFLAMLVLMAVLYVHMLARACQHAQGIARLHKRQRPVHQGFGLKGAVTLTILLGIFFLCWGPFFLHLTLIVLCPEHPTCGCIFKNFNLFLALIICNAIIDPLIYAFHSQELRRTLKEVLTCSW

[9] = target: T2, Melanocortin receptor 4 (Homo sapiens, UniProt P32245); assay: Agonist activity at human recombinant MC4 receptor expressed in CHO cells by cAMP responsive beta lactamase reporter gene assay; format: functional, cell-based
[10] = Tmax in dog at 0.67 mg/kg, sublingual; format: ADME, organism-based, Canis lupus familiaris; design: dose 0.67 mg/kg; conditions: in vivo
[11] = Drug excretion in rat urine assessed as parent compound level at 195 mg; format: ADME; conditions: read-out: Drug uptake
[12] = Tmax in dog at 0.14 mg/kg, sublingual; format: ADME, organism-based, Canis lupus familiaris; design: dose 0.14 mg/kg; conditions: in vivo
[13] = AUC (0 to infinity) in dog at 0.5 mg/kg, po; format: ADME, organism-based, Canis lupus familiaris; design: time infinity, dose 0.5 mg/kg, route oral; conditions: plasma
[14] = system: Homo sapiens; assay: Reversal of erectile dysfunction in human assessed as visual sexual stimulation at 200 mg, po dosed twice with the interval of 7 days measuerd after 2 hrs post-dose on day 7; format: functional, organism-based
[15] = Bioavailability in dog at 0.14 mg/kg, intranasal; format: ADME, organism-based, Canis lupus familiaris; conditions: in vivo, inhaled or intranasal
[16] = Binding affinity to sodium channel
[17] = Half life in dog at 0.5 mg/kg, iv; format: ADME, organism-based, Canis lupus familiaris; design: dose 0.5 mg/kg, route intravenous; conditions: in vivo
[18] = Apparent Permeability from apical to basolateral side of MDCK2 cells over expressing MDR1; format: ADME, cell-based, Canis lupus familiaris; conditions: dog, MDCK-MDR1; read-out: permeability
[19] = Tmax in dog at 0.14 mg/kg, intranasal; format: ADME, organism-based, Canis lupus familiaris; design: dose 0.14 mg/kg; conditions: in vivo, inhaled or intranasal
[20] = Half life in dog at 2.04 mg/kg, sublingual; format: ADME, organism-based, Canis lupus familiaris; design: dose 2.04 mg/kg; conditions: in vivo
[21] = AUC (0 to infinity) in dog at 0.14 mg/kg, sublingual; format: ADME, organism-based, Canis lupus familiaris; design: time infinity, route sublingual, dose 0.14 mg/kg; conditions: plasma
[22] = Volume of distribution at steady state in dog plasma at 0.5 mg/kg, iv; format: ADME, organism-based, Canis lupus familiaris; design: dose 0.5 mg/kg, route intravenous; conditions: read-out: Vdss
[23] = system: Liver microsomes; assay: Intrinsic clearance in rat liver microsome measured per mg of protein; format: ADME
[24] = Clearance in rat at 1 mg/kg, iv; format: ADME, organism-based; design: dose 1 mg/kg, route intravenous; conditions: in vivo
[25] = Clearance in dog plasma at 0.5 mg/kg, iv; format: ADME, organism-based, Canis lupus familiaris; design: dose 0.5 mg/kg, route intravenous
[26] = Cmax in dog at 0.67 mg/kg, sublingual; format: ADME, organism-based, Canis lupus familiaris; design: dose 0.67 mg/kg, route sublingual; conditions: in vivo
[27] = Half life in dog at 0.67 mg/kg, sublingual; format: ADME, organism-based, Canis lupus familiaris; design: dose 0.67 mg/kg; conditions: in vivo
[28] = target: T3, Melanocortin receptor 5 (Homo sapiens, UniProt P33032); assay: Agonist activity at human recombinant MC5 receptor expressed in HEK293 cells assessed as cAMP accumulation by beta lactamase reporter gene assay; format: functional, cell-based
[29] = Peak plasma concentration in rat at 195 mg, po; format: ADME, organism-based
[30] = AUC (0 to infinity) in dog at 0.14 mg/kg, intranasal; format: ADME, organism-based, Canis lupus familiaris; design: route nasal, time infinity, dose 0.14 mg/kg; conditions: plasma, inhaled or intranasal
[31] = target: T4, Melanocortin receptor 3 (Homo sapiens, UniProt P41968); assay: Agonist activity at human recombinant MC3 receptor expressed in CHO cells assessed as cAMP accumulation by enzyme fragment complementation assay; format: functional, cell-based
[32] = system: Homo sapiens; assay: Reversal of erectile dysfunction in human assessed as visual sexual stimulation at 200 mg, po after 2 hrs post dose; format: functional, organism-based
[33] = Oral bioavailability in rat at 1 mg/kg; format: ADME, organism-based; conditions: in vivo
[34] = Half life in dog at 0.14 mg/kg, intranasal; format: ADME, organism-based, Canis lupus familiaris; design: dose 0.14 mg/kg; conditions: in vivo, inhaled or intranasal
[35] = (§1) Oral bioavailability in dog at 0.5 mg/kg; format: ADME, organism-based, Canis lupus familiaris; conditions: in vivo
[36] = target: T2, Melanocortin receptor 4; assay: Displacement of [125I]-MT-II from human recombinant MC4 receptor expressed in CHO cells by scintillation counting
[37] = target: T4, Melanocortin receptor 3; assay: Agonist activity at human recombinant MC3 receptor expressed in CHO cells assessed as cAMP accumulation by enzyme fragment complementation assay relative to […]; format: functional, cell-based
[38] = Bioavailability in dog at 0.67 mg/kg, sublingual; format: ADME, organism-based, Canis lupus familiaris; conditions: in vivo
[39] = Intrinsic clearance in human liver microsome measured per mg of protein; format: ADME; conditions: liver microsomes
[40] = species: Homo sapiens; assay: Toxicity in human assessed as minimum effective dose; format: organism-based; conditions: in vivo
[41] = Peak plasma concentration in rat at 195 mg, sublingual; format: ADME, organism-based
[42] = Tmax in dog at 0.5 mg/kg, po; format: ADME, organism-based, Canis lupus familiaris; design: dose 0.5 mg/kg, route oral; conditions: in vivo
[43] = Cmax in dog at 0.14 mg/kg, intranasal; format: ADME, organism-based, Canis lupus familiaris; design: route nasal, dose 0.14 mg/kg; conditions: in vivo, inhaled or intranasal
[44] = Bioavailability in dog at 0.14 mg/kg, sublingual; format: ADME, organism-based, Canis lupus familiaris; conditions: in vivo
[45] = Lipophilicity, log D at pH 7.4; format: physicochemical; conditions: buffer
[46] = Half life in rat at 1 mg/kg, iv; format: ADME, organism-based; design: dose 1 mg/kg, route intravenous; conditions: in vivo
[47] = as §1; format: ADME, organism-based, Canis lupus familiaris; conditions: in vivo; remark: listed apart in the source
[48] = Fraction unbound in dog plasma; format: ADME, cell-free, Canis lupus familiaris
[49] = Fraction unbound in rat plasma; format: ADME, cell-free
[50] = Cmax in dog at 0.14 mg/kg, sublingual; format: ADME, organism-based, Canis lupus familiaris; design: route sublingual, dose 0.14 mg/kg; conditions: in vivo
[51] = AUC (0 to infinity) in dog at 2.04 mg/kg, sublingual; format: ADME, organism-based, Canis lupus familiaris; design: time infinity, dose 2.04 mg/kg, route sublingual; conditions: plasma
[52] = AUC (0 to infinity) in dog at 0.67 mg/kg, sublingual; format: ADME, organism-based, Canis lupus familiaris; design: route sublingual, dose 0.67 mg/kg, time infinity; conditions: plasma
[53] = Cmax in dog at 0.5 mg/kg, po; format: ADME, organism-based, Canis lupus familiaris; design: dose 0.5 mg/kg, route oral; conditions: in vivo
[54] = target: T3, Melanocortin receptor 5; assay: Agonist activity at human recombinant MC5 receptor expressed in HEK293 cells assessed as cAMP accumulation by beta lactamase reporter gene assay relative to alpha melanocyte-stimulating hormone; format: functional, cell-based
[55] = target: T1, Melanocyte-stimulating hormone receptor; assay: Agonist activity at human recombinant MC1 receptor expressed in HEK293 cells assessed as cAMP accumulation by enzyme fragment complementation assay relative to alpha melanocyte-stimulating hormone; format: functional, cell-based
Target sequence in this assay (Q01726 whole entry, looked up, the tested form may be a part): as the sequence (Q01726 whole entry, the tested form may be a part) above

[56] = Apparent Permeability from basolateral to apical side of MDCK2 cells over expressing MDR1; format: ADME, cell-based, Canis lupus familiaris; conditions: dog, MDCK-MDR1; read-out: permeability
[57] = Half life in dog at 0.14 mg/kg, sublingual; format: ADME, organism-based, Canis lupus familiaris; design: dose 0.14 mg/kg; conditions: in vivo
[58] = Binding affinity to sigma opioid receptor
[59] = Bioavailability in dog at 2.04 mg/kg, sublingual; format: ADME, organism-based, Canis lupus familiaris; conditions: in vivo
[60] = Intrinsic clearance in dog liver microsome measured per mg of protein; format: ADME, Canis lupus familiaris; conditions: microsomes
[61] = Terminal half life in human at 195 mg, po; format: ADME, organism-based; conditions: in vivo, read-out: beta t1/2 (converted)
[62] = Drug excretion in iv dosed rat urine; format: ADME, organism-based; conditions: read-out: Drug uptake
[63] = system: Homo sapiens; assay: Reversal of erectile dysfunction in human assessed as non-visual sexual stimulation at 200 mg, po after 2 hrs post dose; format: functional, organism-based
[64] = target: Voltage-gated inwardly rectifying potassium channel KCNH2 (Homo sapiens, UniProt Q12809); assay: Displacement of [3H]dofetilide from human ERG expressed in CHO cells by patch clamp method
Voltage-gated inwardly rectifying potassium channel KCNH2, sequence (Q12809 whole entry): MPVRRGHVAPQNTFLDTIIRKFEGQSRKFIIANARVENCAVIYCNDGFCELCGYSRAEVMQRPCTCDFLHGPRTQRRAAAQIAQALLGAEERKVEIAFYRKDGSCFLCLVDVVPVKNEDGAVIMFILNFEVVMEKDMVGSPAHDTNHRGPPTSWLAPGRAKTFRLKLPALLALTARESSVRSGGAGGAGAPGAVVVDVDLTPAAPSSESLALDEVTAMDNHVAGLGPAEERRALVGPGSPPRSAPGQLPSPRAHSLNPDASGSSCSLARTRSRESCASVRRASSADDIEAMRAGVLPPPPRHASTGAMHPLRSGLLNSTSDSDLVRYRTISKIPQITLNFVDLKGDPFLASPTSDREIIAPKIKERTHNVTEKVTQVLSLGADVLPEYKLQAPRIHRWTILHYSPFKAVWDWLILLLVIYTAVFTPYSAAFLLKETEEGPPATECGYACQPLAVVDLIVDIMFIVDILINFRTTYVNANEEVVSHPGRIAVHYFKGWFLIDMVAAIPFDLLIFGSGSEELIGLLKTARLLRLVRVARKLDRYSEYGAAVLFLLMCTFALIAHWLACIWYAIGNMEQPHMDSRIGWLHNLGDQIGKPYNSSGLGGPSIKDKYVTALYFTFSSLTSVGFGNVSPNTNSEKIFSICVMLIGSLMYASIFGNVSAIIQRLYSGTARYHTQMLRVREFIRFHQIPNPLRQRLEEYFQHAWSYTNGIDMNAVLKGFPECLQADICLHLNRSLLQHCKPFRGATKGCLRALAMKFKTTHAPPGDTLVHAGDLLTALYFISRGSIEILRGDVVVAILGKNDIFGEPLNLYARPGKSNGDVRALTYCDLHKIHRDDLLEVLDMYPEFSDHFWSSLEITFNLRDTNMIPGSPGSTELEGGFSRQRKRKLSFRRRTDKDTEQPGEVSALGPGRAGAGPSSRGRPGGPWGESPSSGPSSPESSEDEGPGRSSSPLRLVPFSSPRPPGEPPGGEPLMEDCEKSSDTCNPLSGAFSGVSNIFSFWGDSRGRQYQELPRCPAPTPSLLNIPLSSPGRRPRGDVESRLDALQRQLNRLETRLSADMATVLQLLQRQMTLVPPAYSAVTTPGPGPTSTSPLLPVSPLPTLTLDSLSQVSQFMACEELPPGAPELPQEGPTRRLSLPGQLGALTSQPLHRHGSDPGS

T3 sequence (P33032 whole entry): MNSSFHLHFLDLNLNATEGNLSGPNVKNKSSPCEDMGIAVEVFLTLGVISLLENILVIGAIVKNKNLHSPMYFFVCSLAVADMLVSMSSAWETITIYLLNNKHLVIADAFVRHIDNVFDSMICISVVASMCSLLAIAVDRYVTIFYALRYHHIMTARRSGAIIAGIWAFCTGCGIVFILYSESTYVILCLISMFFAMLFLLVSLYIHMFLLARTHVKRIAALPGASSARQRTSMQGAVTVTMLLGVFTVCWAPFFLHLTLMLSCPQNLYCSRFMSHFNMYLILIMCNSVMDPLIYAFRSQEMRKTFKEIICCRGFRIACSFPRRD
T4 sequence (P41968 whole entry, the tested form may be a part): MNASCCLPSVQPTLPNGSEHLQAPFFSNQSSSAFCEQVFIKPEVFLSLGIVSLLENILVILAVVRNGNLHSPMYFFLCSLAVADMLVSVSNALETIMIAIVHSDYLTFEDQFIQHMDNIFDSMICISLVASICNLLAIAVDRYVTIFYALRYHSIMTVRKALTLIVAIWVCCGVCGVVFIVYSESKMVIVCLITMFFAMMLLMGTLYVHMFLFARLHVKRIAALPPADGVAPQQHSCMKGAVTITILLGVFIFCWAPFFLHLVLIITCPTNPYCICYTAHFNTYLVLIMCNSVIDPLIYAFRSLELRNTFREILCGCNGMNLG
T2 sequence (P32245 whole entry): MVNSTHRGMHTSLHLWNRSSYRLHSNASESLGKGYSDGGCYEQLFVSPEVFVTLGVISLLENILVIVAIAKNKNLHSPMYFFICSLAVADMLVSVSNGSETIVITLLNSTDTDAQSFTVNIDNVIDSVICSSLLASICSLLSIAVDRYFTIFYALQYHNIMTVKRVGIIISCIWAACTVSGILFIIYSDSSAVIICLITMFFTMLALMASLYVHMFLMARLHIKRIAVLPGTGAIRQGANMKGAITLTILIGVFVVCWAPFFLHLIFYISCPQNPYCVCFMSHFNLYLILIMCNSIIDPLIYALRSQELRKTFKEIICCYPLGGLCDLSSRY

dose excreted [1]: < 1%
Cmax [2]: 41 ng/mL
pKa [3]: 8.95
Tmax [4]: 0.3 h
half-life [5]: 1.9 h
Vd [7]: 19 L/kg
EC50 [8]: 1.02 µM
EC50 [9]: 0.012 µM
Tmax [10]: 0.3 h
dose excreted [11]: < 2.5%
Tmax [12]: 0.7 h
AUC(0-inf) [13]: 1.8 ng·h/mL
bioavailability [15]: 24%
Ki [16]: 0.69 µM
half-life [17]: 4.2 h
Papp A→B [18]: 41 ×10⁻⁶ cm/s
Tmax [19]: 1.6 h
half-life [20]: 4 h
AUC(0-inf) [21]: 17 ng·h/mL
Vd [22]: 17 L/kg
clearance [23]: 60 µL/min/mg
clearance [24]: 89 mL/min/kg
clearance [25]: 46 mL/min/kg
Cmax [26]: 15 ng/mL
half-life [27]: 3.6 h
EC50 [28]: 1.98 µM
Cmax [29]: 30 ng/mL
AUC(0-inf) [30]: 12 ng·h/mL
EC50 [31]: 1.16 µM
bioavailability [33]: 20%
half-life [34]: 3.3 h
bioavailability [35]: 1%
Ki [36]: 0.027 µM
Emax [37]: 99%
bioavailability [38]: 26%
microsomal CLint [39]: 45 µL/min/mg
Cmax [41]: 31 ng/mL
Tmax [42]: 1 h
Cmax [43]: 2.6 ng/mL
bioavailability [44]: 35%
logD [45]: 2.8
half-life [46]: 2.4 h
bioavailability [47]: 1%
fraction unbound [48]: 0.15
fraction unbound [49]: 0.07
Cmax [50]: 2.6 ng/mL
AUC(0-inf) [51]: 146 ng·h/mL
AUC(0-inf) [52]: 64 ng·h/mL
Cmax [53]: 0.9 ng/mL
Emax [54]: 100%
Emax [55]: 103%
Papp B→A [56]: 18 ×10⁻⁶ cm/s
half-life [57]: 3.7 h
Ki [58]: 0.33 µM
bioavailability [59]: 20%
clearance [60]: 242 µL/min/mg
half-life [61]: 12 h
dose excreted [62]: < 3%
SMILES: C[C@@H]1CN(C(=O)[C@@H]2CN(C(C)(C)C)C[C@H]2c2ccc(F)cc2F)C[C@H](C)[C@@]1(O)c1ccccc1.Cl
Activity [6]: Active
Activity [14]: Active
Activity [32]: Active
Activity [40]: Toxic
Activity [63]: Active

EC50 [8]: > 5.01 µM
EC50 [9]: 0.045 µM
EC50 [28]: > 5.81 µM
EC50 [31]: 4.57 µM
Ki [36]: 0.099 µM
Emax [37]: 76%
SMILES: C[C@@H]1CN(C(=O)[C@@H]2CN(C(C)(C)C)C[C@H]2c2ccc(F)cc2F)C[C@H](C)[C@@]1(O)c1c(F)cccc1F
Ki [64]: 5 µM

EC50 [8]: 1.17 µM
EC50 [9]: 0.046 µM
EC50 [31]: > 33.3 µM
Ki [36]: 0.35 µM
Emax [54]: 100%
Emax [55]: 97%
SMILES: C[C@@H]1CN(C(=O)[C@@H]2CN(C(C)(C)C)C[C@H]2c2ccc(F)cc2F)C[C@H](C)[C@@]1(O)c1ccccn1
Ki [64]: 5.84 µM

— ChEMBL document CHEMBL1156187, “Discovery of a selective small-molecule melanocortin-4 receptor agonist with efficacy in a pilot study of sexual dysfunction in humans” (J Med Chem, 2010)
